Target: T1, recombinant human GST-Syk (Homo sapiens, UniProt P43405)
T1 construct: purchased Carna Biosciences 08-176
Assay: Homogeneous Time-Resolved Fluorescence (HTRF) assay for the recombinant human Syk enzyme
Format: biochemical
Settings: recombinant human GST-Syk 5 pM, ATP 25 μM, read-out: IC50
Experimental: Syk inhibition of the compounds of Formula (I) may be determined using the following assay protocol: Homogeneous Time-Resolved Fluorescence (HTRF) Assay for the Recombinant Human Syk Enzyme: A recombinant GST-hSyk fusion protein was used to measure potency of compounds to inhibit human Syk activity. […] Final volume of the reaction was 10 μL. Phosphorylation of the peptide was allowed to proceed for 45' at room temperature. To quench the reaction and detect the phosphorylated product, 2 nM of a Europium-anti-phosphotyrosine antibody (Perkin Elmer #AD0161) and 70 nM SA-APC (Perkin-Elmer #CR130-100) were added together in 15 mM Tris pH 7.5, 40 mM EDTA, 0.01% tween 20. Final volume of the quenching solution was 10 μL. The resulting HTRF signal was measured after 30 minutes on a EnVision (Perkin-Elmer) reader using a time-resolved fluorescence protocol.

| SMILES | IC50 [nM] |
| --- | --- |
| COCCN(C)C(=O)OC(C)OC(=O)[C@H]1CC[C@H]([C@@](C)(O)c2ccc(-c3cc(C)cc(Nc4cc(C(F)F)ccn4)n3)cn2)CC1 (single isomer, unassigned) [Example 4-1b] | 12.9 |
| Cc1cc(Nc2cc(C(F)F)ccn2)nc(-c2ccc([C@](C)(O)[C@H]3CC[C@H](C(=O)Oc4ccccc4)CC3)nc2)c1 [Example 1-6, Phenyl trans-4-[(1R)-1-(6-{[4-(difluoromethyl)pyridin-2-yl]amino}-4-methyl-2,3′-bipyridin-6′-yl)-1-hydroxyethyl]cyclohexanecarboxylate] | 9.7 |
| Cc1cc(Nc2cc(C(F)F)ccn2)nc(-c2ccc([C@](C)(O)[C@H]3CC[C@H](C(=O)OCC[N+](C)(C)C)CC3)nc2)c1 [Example 1-10, 2-[({trans-4-[(1R)-1-(6-{[4-(difluoromethyl)pyridin-2-yl]amino}-4-methyl-2,3′-bipyridin-6′-yl)-1-hydroxyethyl]cyclohexyl}carbonyl)oxy]-N,N,N-trimethylethanaminium] | 1.7 |
| Cc1cc(Nc2cc(C(F)F)ccn2)nc(-c2ccc([C@](C)(O)[C@H]3CC[C@H](C(=O)OC[C@H]4OC(O)[C@H](O)[C@@H](O)[C@@H]4O)CC3)nc2)c1 (stereo partly drawn) [Example 1-4, 6-O-({trans-4-[(1R)-1-(6-{[4-(difluoromethyl)pyridin-2-yl]amino}-4-methyl-2,3′-bipyridin-6′-yl)-1-hydroxyethyl]cyclohexyl}carbonyl)-D-glucopyranose] | 0.8 |
| Cc1cc(Nc2cc(C(F)F)ccn2)nc(-c2ccc([C@](C)(O)[C@H]3CC[C@H](C(=O)OCC(C)(C)O)CC3)nc2)c1 [Example 1-1, 2-Hydroxy-2-methylpropyl trans-4-[(1R)-1-(6-{[4-(difluoromethyl)pyridin-2-yl]amino}-4-methyl-2,3′-bipyridin-6′-yl)-1-hydroxyethyl]cyclohexanecarboxylate] | 8.1 |
| Cc1cc(Nc2cc(C(F)F)ccn2)nc(-c2ccc([C@](C)(O)[C@H]3CC[C@H](C(=O)OC(C)OC(=O)c4cnn(C)c4)CC3)nc2)c1 (single isomer, unassigned) [Example 3-2a] | 19.1 |
| CSCCOC(=O)[C@H]1CC[C@H]([C@@](C)(O)c2ccc(-c3cc(C)cc(Nc4cc(C(F)F)ccn4)n3)cn2)CC1 [Example 1-7, 2-(methylsulfanyl)ethyl trans-4-[(1R)-1-(6-{[4-(difluoromethyl)pyridin-2-yl]amino}-4-methyl-2,3′-bipyridin-6′-yl)-1-hydroxyethyl] cyclohexanecarboxylate] | 18.2 |

The remaining lines, values ahead:

| IC50 [nM] | SMILES |
| --- | --- |
| < 0.5 | Cc1cc(Nc2cc(C(F)F)ccn2)nc(-c2ccc([C@](C)(O)[C@H]3CC[C@H](C(=O)OC[N+](C)(C)CCc4ccccn4)CC3)nc2)c1 [Example 5-21, N-{[({trans-4-[(1R)-1-(6-{[4-(difluoromethyl)pyridin-2-yl]amino}-4-methyl-2,3′-bipyridin-6′-yl)-1-hydroxyethyl]cyclohexyl}carbonyl)oxy]methyl}-N,N-dimethyl-2-pyridin-2-ylethanaminium] |
| 0.8 | CCOC(=O)C[N+](C)(C)COC(=O)[C@H]1CC[C@H]([C@@](C)(O)c2ccc(-c3cc(C)cc(Nc4cc(C(F)F)ccn4)n3)cn2)CC1 [Example 5-19, N-{[({trans-4-[(1R)-1-(6-{[4-(difluoromethyl)pyridin-2-yl]amino}-4-methyl-2,3′-bipyridin-6′-yl)-1-hydroxyethyl]cyclohexyl}carbonyl)oxy]methyl}-2-ethoxy-N,N-dimethyl-2-oxoethanaminium] |
| < 0.5 | Cc1cc(Nc2cc(C(F)F)ccn2)nc(-c2ccc([C@](C)(O)[C@H]3CC[C@H](C(=O)OCOC(=O)CO)CC3)nc2)c1 [Example 3-5, [(hydroxyacetyl)oxy] methyl trans-4-[(1R)-1-(6-{[4-(difluoromethyl)pyridin-2-yl]amino}-4-methyl-2,3′-bipyridin-6′-yl)-1-hydroxyethyl]cyclohexane carboxylate] |
| 0.9 | CC[N+](CC)(COC(=O)[C@H]1CC[C@H]([C@@](C)(O)c2ccc(-c3cc(C)cc(Nc4cc(C(F)F)ccn4)n3)cn2)CC1)C1CCCCC1 [Example 5-22, N-{[({trans-4-[(1R)-1-(6-{[4-(difluoromethyl)pyridin-2-yl]amino}-4-methyl-2,3′-bipyridin-6′-yl)-1-hydroxyethyl]cyclohexyl}carbonyl)oxy]methyl}-N,N-diethylcyclohexanaminium] |
| 34.6 | Cc1cc(Nc2cc(C(F)F)ccn2)nc(-c2ccc([C@](C)(O)[C@H]3CC[C@H](C(=O)OCOC(=O)OCc4nccn4C)CC3)nc2)c1 [Example 2-13, ({[(1-methyl-1H-imidazol-2-yl)methoxy]carbonyl}oxy)methyl trans-4-[(1R)-1-(6-{[4-(difluoromethyl)pyridin-2-yl]amino}-4-methyl-2,3′-bipyridin-6′-yl)-1-hydroxyethyl]cyclo hexanecarboxylate] |
| 8.3 | Cc1cc(Nc2cc(C(F)F)ccn2)nc(-c2ccc([C@](C)(O)[C@H]3CC[C@H](C(=O)OCOC(=O)c4cnn(C)c4)CC3)nc2)c1 [Example 3-8, [({trans-4-[(1R)-1-(6-{[4-(difluoromethyl)pyridin-2-yl]amino}-4-methyl-2,3′-bipyridin-6′-yl)-1-hydroxyethyl]cyclohexyl}carbonyl)oxy]methyl 1-methyl-1H-pyrazole-4-carboxylate] |
| 12.7 | CC(=O)N[C@@H](CC(C)C)C(=O)OCOC(=O)[C@H]1CC[C@H]([C@@](C)(O)c2ccc(-c3cc(C)cc(Nc4cc(C(F)F)ccn4)n3)cn2)CC1 [Example 3-7, [({trans-4-[(1R)-1-(6-{[4-(difluoromethyl)pyridin-2-yl]amino}-4-methyl-2,3′-bipyridin-6′-yl)-1-hydroxyethyl]cyclohexyl}carbonyl)oxy]methyl N-acetyl-L-leucinate] |
| 6.2 | Cc1cc(Nc2cc(C(F)F)ccn2)nc(-c2ccc([C@](C)(O)[C@H]3CC[C@H](C(=O)OCOC(=O)OCCOCc4ccccc4)CC3)nc2)c1 [Example 2-3, ({[2-(benzyloxy)ethoxy]carbonyl}oxy) methyl trans-4-[(1R)-1-(6-{[4-(difluoromethyl)pyridin-2-yl]amino}-4-methyl-2,3′-bipyridin-6′-yl)-1-hydroxyethyl]cyclo hexanecarboxylate] |
| 0.6 | Cc1cc(Nc2cc(C(F)F)ccn2)nc(-c2ccc([C@](C)(O)[C@H]3CC[C@H](C(=O)OC[N+]4(CC#N)CCCCC4)CC3)nc2)c1 [Example 5-16, 1-(cyanomethyl)-1-{[({trans-4-[(1R)-1-(6-{[4-(difluoromethyl)pyridin-2-yl]amino}-4-methyl-2,3′-bipyridin-6′-yl)-1-hydroxyethyl]cyclohexyl}carbonyl)oxy]methyl}piperidinium] |
| 2.4 | COCCOCCNC(=O)OCOC(=O)[C@H]1CC[C@H]([C@@](C)(O)c2ccc(-c3cc(C)cc(Nc4cc(C(F)F)ccn4)n3)cn2)CC1 [Example 4-3, 3-oxo-2,7,10-trioxa-4-azaundec-1-yl trans-4-[(1R)-1-(6-{[4-(difluoromethyl)pyridin-2-yl]amino}-4-methyl-2,3′-bipyridin-6′-yl)-1-hydroxyethyl]cyclohexanecarboxylate] |
| 1 | Cc1cc(Nc2cc(C(F)F)ccn2)nc(-c2ccc([C@](C)(O)[C@H]3CC[C@H](C(=O)OC[N+](C)(C4CCCCC4)C4CCCCC4)CC3)nc2)c1 [Example 5-24, N-cyclohexyl-N-{[({trans-4-[(1R)-1-(6-{[4-(difluoromethyl)pyridin-2-yl]amino}-4-methyl-2,3′-bipyridin-6′-yl)-1-hydroxyethyl]cyclohexyl}carbonyl)oxy]methyl}-N-methylcyclohexanaminium] |
| 1.1 | CCCC[N+](CCCC)(CCCC)COC(=O)[C@H]1CC[C@H]([C@@](C)(O)c2ccc(-c3cc(C)cc(Nc4cc(C(F)F)ccn4)n3)cn2)CC1 [Example 5-4, N,N-dibutyl-N-{[({trans-4-[(1R)-1-(6-{[4-(difluoromethyl)pyridin-2-yl]amino}-4-methyl-2,3′-bipyridin-6′-yl)-1-hydroxyethyl]cyclohexyl}carbonyl)oxy]methyl}butan-1-aminium] |
| 3.3 | Cc1cc(Nc2cc(C(F)F)ccn2)nc(-c2ccc([C@](C)(O)[C@H]3CC[C@H](C(=O)OCC[S+](C)[O-])CC3)nc2)c1 (stereo partly drawn) [Example 7-3, 2-(methylsulfinyl)ethyl trans-4-[(1R)-1-(6-{[4-(difluoromethyl)pyridin-2-yl]amino}-4-methyl-2,3′-bipyridin-6′-yl)-1-hydroxyethyl]cyclohexane-carboxylate] |
| 0.6 | Cc1cc(Nc2cc(C(F)F)ccn2)nc(-c2ccc([C@](C)(O)[C@H]3CC[C@H](C(=O)OCOC(=O)OCC[S+](C)[O-])CC3)nc2)c1 (single isomer, unassigned) [Example 7-5] |
| 1.4 | CCCC[N+](C)(CCCC)COC(=O)[C@H]1CC[C@H]([C@@](C)(O)c2ccc(-c3cc(C)cc(Nc4cc(C(F)F)ccn4)n3)cn2)CC1 [Example 5-18, N-butyl-N-{[({trans-4-[(1R)-1-(6-{[4-(difluoromethyl)pyridin-2-yl]amino}-4-methyl-2,3′-bipyridin-6′-yl)-1-hydroxyethyl]cyclohexyl}carbonyl)oxy]methyl}-N-methylbutan-1-aminium] |
| 1.3 | Cc1cc(Nc2cc(C(F)F)ccn2)nc(-c2ccc([C@](C)(O)[C@H]3CC[C@H](C(=O)OC[N+]4(C)CCC(F)(F)CC4)CC3)nc2)c1 [Example 5-13, 1-{[({trans-4-[(1R)-1-(6-{[4-(difluoromethyl)pyridin-2-yl]amino}-4-methyl-2,3′-bipyridin-6′-yl)-1-hydroxyethyl]cyclohexyl}carbonyl)oxy]methyl}-4,4-difluoro-1-methylpiperidinium] |

Source: patent publication US20150299125A1, “PRODRUG BIPYRIDYLAMINOPYRIDINES AS SYK INHIBITORS” (MERCK SHARP & DOHME CORP., priority 2012, published 2015)
